Assays:
Format in all cases: in vivo, human
[1] = Example 1: serum creatine levels and brain creatine by magnetic resonance spectroscopy; conditions: for Increase in absolute creatine concentration by MRS: by week 16, 8 g/day, p<0.05, returned to baseline at week 24
Text: Study protocol. Subjects were screened within 25 days of randomization (baseline visit). Screening included assessment of eligibility criteria, medical history, physical examination, Unified Huntington's Disease Rating Scale (UHDRS), EKG, DNA analysis, complete blood count, chemistry panel, and urinalysis. Subjects were on study drug (creatine or placebo) for 16 weeks, followed by an 8-week washout. Study visits occurred at baseline, weeks 8, 16, and 24 with telephone contacts at weeks 1, 10 and 20. Physical examination was done at screening and week 16. UHDRS scores, vital signs, adverse event assessment, and safety laboratory tests were repeated at all visits. Blood was collected for serum creatine levels and serum 8-hydroxy-2′-deoxyguanosine (8OH2′dG), a measure of oxidative injury affecting DNA. The later was analyzed in the samples from two sites. Magnetic resonance spectroscopy (MRS; STEAM; TR/TE=6000/20 milliseconds) of frontal cortex (voxel size=56 cc) and occipital cortex (voxel size=18 cc) performed at one site was analyzed for this report. Subject compliance was assessed by wafer counts.

[2] = tested on: subjects with early Parkinson's disease (PD); assay: Example 2: randomized double-blind futility trial, change in total UPDRS
Procedure: Study Design and Randomization. This example was a single arm futility study designed to assess creatine and minocycline. A placebo arm for calibration was included in the example. Eligible subjects were randomly assigned in a 1:1:1 fashion to receive 1) 10 g/day of creatine monohydrate and placebo minocycline, 2) placebo creatine monohydrate and 200 mg/day of minocycline, or 3) placebo creatine monohydrate and placebo minocycline. The primary futility analysis was at 12 months of follow-up, but each subject was followed for 18 months for additional safety information. Subjects and investigators were kept blinded to treatment group.
Participants. […] Two of the three cardinal manifestations of PD (tremor, rigidity, and bradykinesia) were required; these findings had to be asymmetric. The diagnosis of PD must have been made within 5 years of randomization. Women of childbearing potential were required to use adequate birth control and have a negative pregnancy test at baseline. Subjects were excluded if they had any secondary causes of parkinsonism, such as drug induced parkinsonism or structural lesions; had atypical parkinsonian syndromes; gait freezing or impairment in postural reflexes; had prior stereotaxis surgery for PD; used creatine, minocycline, or any investigational agent within 90 days prior to randomization; had known hypersensitivity to creatine or minocycline; used CoQ10 in doses greater than 300 mg 90 days prior to randomization; or had any clinically significant medical condition that could interfere with the subject's ability to safely participate in the study or be followed.
Dosages. Creatine was administered as 5 g sachets mixed with 8 ounces of liquid taken twice a day and minocycline was administered as 100 mg capsules taken twice a day. Both were taken with meals.
Outcome measures. […] Disability was assessed by the sight investigator, based on impairment in ambulation, activities in daily living, and occupational status. […] Both the site investigator and medical monitors assessed the potential relationship between SAEs and study drug. […]

patients with ALS = assay: Example 4: combined survival analysis of two placebo-controlled trials in amyotrophic lateral sclerosis; conditions: 5 gm per day
Procedure: The two trials analyzed included a total of 211 patients, 103 creatine-treated and 108 placebo-treated subjects.
For this analysis, a measure of treatment effect in an estimated pooled hazard ratio was calculated. This measure gives the risk of death for treated subjects divided by the risk of death for controls. Survival analysis by treatment was also performed for each trial separately. A Cox model was used to assess the hazard ratios and survival by treatment in the pooled data, controlling for trial effect and baseline variables. Baseline characteristics of the study populations were also compared. Continuous variables were compared by treatment and trial, using the analysis of variance by putting both treatment and trial as the […] variables. A Cochran-Mantel-Haenszel test statistic was used to compare discrete variables by treatment and trial, controlling for trial and treatment effects, respectively.

CN(CC(=O)O)C(=N)N [Creatine, creatine monohydrate]
Increase in absolute creatine concentration by MRS ([1]; frontal cortex): 7.5% | concentration at 16 weeks ([1]; human, serum, oral, 8 g/day, week 16, baseline 46.4 (SD=35.7), SD=259.9, read-out: Average serum creatine level): 382 µM | concentration at 24 weeks ([1]; human, serum, oral, at washout after 8 g/day for 16 weeks, SD=29.5, read-out: Average serum creatine level): 51.8 µM | Increase in absolute creatine concentration by MRS ([1]; occipital cortex): 13% | Mean (SD) change in total UPDRS ([2]; baseline to 12 months or time symptomatic therapy needed, creatine 10 g/day, minocycline 200 mg/day, worst change score imputed): 5.6 (8.69) | Futility analysis outcome ([2]; threshold 7.46 (30% less than 10.65 DATATOP historical progression)): could not be rejected as futile | Improvement of median survival over placebo (patients with ALS; pooled data): two-to-three | Adjusted hazard ratio, creatine group relative to placebo group (patients with ALS; pooled data of two trials, Cox model, 95% confidence interval 0.11 to 1.04, p=0.059): 0.34 | Median survival (patients with ALS; pooled data, placebo 27 months): 87 months | Hazard ratio, homogeneity of effect between trials (patients with ALS; p=0.062, 95% confidence interval 0.11 to 1.06): 0.34

— patent US20070292403A1, “Methods of treating a neurological disorder with creatine monohydrate” (priority 2006, published 2007)
